Measured values taken from publication PMC10857906, “PROTAC-mediated NR4A1 degradation as a novel strategy for cancer immunotherapy” (The Journal of Experimental Medicine, 2024).

Experiments:
NR4A1 = target: T1, NR4A1 (Homo sapiens, UniProt P22736); assay: NR4A1 degradation in WM164 and M229 human melanoma cells (immunoblotting); format: cell-based; conditions: 16 h
T1 construct: NR-V04 effectively promoted the degradation of NR4A1 in two human melanoma cell lines within 16 h; endogenous in cells; host or cells: CHL-1, A375, WM164, M229 human melanoma cells
Protocol: Human melanoma cell lines: A375 and CHL-1 (gifts from Dr. D. Zhou, the University of Texas Health Science Center, San Antonio, TX, USA) were cultured in Dulbecco’s Modified Eagles’ Medium (DMEM, D5796; Sigma-Aldrich), WM164 and M229 (gifts from Dr. K.S.M. Smalley’s lab) were cultured in RPMI-1640 (R8758; Sigma-Aldrich). Mouse melanoma cell lines: B16F10 (CRL-6475, ATCC) was cultured in DMEM, SW1 and SM1 (gift from Dr. K.S.M. Smalley, Moffitt Cancer Center, Tampa, FL, USA) were cultured in RPMI. Human epithelial kidney cell lines: HEK293T (293T, CRL-3216; ATCC) and Vhl-KO-293T (gift from Dr. D. Zhou, the University of Texas Health Science Center, San Antonio, TX, USA) were cultured in DMEM. Mouse colon cancer cell lines: MC38 (ENH204-FP; Kerafast Inc.) was cultured in DMEM supplemented with 1 mM glutamine, […] non-essential amino acids (11140050; Thermo Fisher Scientific), 1 mM sodium pyruvate (11360070; Thermo Fisher Scientific), and 10 mM HEPES (15630080; Thermo Fisher Scientific). […]
Samples were lysed using radioimmunoprecipitation assay buffer (RIPA) lysis buffer (150 mM NaCl, 5 mM EDTA, 50 mM Tris pH 8.0, 0.5% sodium deoxycholate, 1% NP-40, 0.1% SDS) supplemented with 1 mM dithiothreitol and protease inhibitors. The lysates were separated by SDS-PAGE and analyzed using standard western blotting procedures ([Khan et al., 2019]). […]

NR4A1 mRNA = NR4A1 mRNA by qPCR in CHL-1 cells; format: cell-based, human; conditions: 500 nM, ACTB as control
Protocol: Total RNA was extracted from cells using RNeasy Kits (74004; QIAGEN) following the manufacturer’s instructions. cDNA synthesis was performed using SuperScript III Reverse Transcriptase (18080044; Thermo Fisher Scientific) with 100 ng RNA as the template. Amplification of cDNA was carried out using 2× PowerUP SYBR Green Master Mix (A25778; Thermo Fisher Scientific). Each reaction was conducted in triplicates and results were normalized to the expression of a housekeeping gene. Primer (Eurofins): human β-actin (forward sequence: 5′-CACCATTGGCAATGAGCGGTTC-3′; reverse sequence: 5′-AGGTCTTTGCGGATGTCCACGT-3′) and human NR4A1 (forward sequence: 5′-GGACAACGCTTCATGCCAGCAT-3′; reverse sequence: 5′-CCTTGTTAGCCAGGCAGATGTAC-3′).

VHL = target: T2, VHL (Homo sapiens, UniProt P40337); assay: VHL protein level after treatment (immunoblotting); format: cell-based; conditions: human melanoma cell lines, 16 h
T2 construct: endogenous in cells; host or cells: CHL-1, A375, WM164, M229 human melanoma cells
Protocol: Samples were lysed using radioimmunoprecipitation assay buffer (RIPA) lysis buffer (150 mM NaCl, 5 mM EDTA, 50 mM Tris pH 8.0, 0.5% sodium deoxycholate, 1% NP-40, 0.1% SDS) supplemented with 1 mM dithiothreitol and protease inhibitors. The lysates were separated by SDS-PAGE and analyzed using standard western blotting procedures ([Khan et al., 2019]). Antibodies: human NR4A1 (ab153914, 1:1,000; Abcam), mouse NR4A1 (14-5965-82, 1:1,000; Invitrogen), NR4A2 (AV38753, 1:1,000; Sigma-Aldrich), NR4A3 (TA804893, 1: 1,000; Thermo Fisher Scientific), VHL (68547, 1:1,000; Cell Signaling), β-actin (13E5, 1:5,000; Cell Signaling), β-tubulin (9F3, 1: 5,000; Cell Signaling), and GAPDH (D16H11, 1: 5,000; Cell Signaling) were employed for protein detection.

T1 sequence (P22736 whole entry): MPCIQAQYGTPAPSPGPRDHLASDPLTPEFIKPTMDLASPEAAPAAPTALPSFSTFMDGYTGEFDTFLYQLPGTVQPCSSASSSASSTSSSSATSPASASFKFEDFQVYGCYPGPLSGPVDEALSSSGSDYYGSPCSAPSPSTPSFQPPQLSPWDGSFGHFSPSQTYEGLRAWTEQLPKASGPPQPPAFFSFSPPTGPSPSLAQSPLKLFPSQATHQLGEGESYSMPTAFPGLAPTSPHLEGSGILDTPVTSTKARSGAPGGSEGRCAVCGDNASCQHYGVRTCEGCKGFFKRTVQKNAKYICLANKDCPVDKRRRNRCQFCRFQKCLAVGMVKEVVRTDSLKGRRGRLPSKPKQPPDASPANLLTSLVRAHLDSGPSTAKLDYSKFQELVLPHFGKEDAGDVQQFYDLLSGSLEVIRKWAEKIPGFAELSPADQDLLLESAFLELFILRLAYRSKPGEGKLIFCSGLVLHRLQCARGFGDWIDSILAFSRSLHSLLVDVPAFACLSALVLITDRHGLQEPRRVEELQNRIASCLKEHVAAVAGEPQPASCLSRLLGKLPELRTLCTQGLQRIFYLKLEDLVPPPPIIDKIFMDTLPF
T2 sequence (P40337 whole entry): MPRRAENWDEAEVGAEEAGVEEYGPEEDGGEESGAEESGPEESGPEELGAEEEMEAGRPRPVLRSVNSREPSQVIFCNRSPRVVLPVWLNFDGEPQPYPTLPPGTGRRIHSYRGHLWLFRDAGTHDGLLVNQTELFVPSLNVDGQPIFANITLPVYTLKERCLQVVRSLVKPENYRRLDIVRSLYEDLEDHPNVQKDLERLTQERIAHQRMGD

## CC1=C(O)C(=O)C=C2C1=CC=C1[C@@]2(C)CC[C@@]2(C)[C@@H]3C[C@](C)(C(=O)NCCOCCOCCOCCOCC(=O)N[C@H](C(=O)N4C[C@H](O)C[C@H]4C(=O)N[C@@H](C)c4ccc(-c5scnc5C)cc4)C(C)(C)C)CC[C@]3(C)CC[C@]12C [NR-V04]
NR4A1; M229 human melanoma cells
  NR4A1 protein level: reduced NR4A1 protein level
NR4A1; WM164 human melanoma cells
  NR4A1 protein level: reduced NR4A1 protein level
NR4A1 mRNA
  NR4A1 mRNA level: increased NR4A1 mRNA after 4 h
VHL
  VHL protein level: accumulation of VHL protein
